Results published in patent US20070254939A1, “Formulations Containing Amide Derivatives of Carboxylic Acid NSAIDS for Topical Administration to the Eye” (ALCON, INC., priority 2006, published 2007).

System: mitochondria prepared from the livers of male Sprague Dawley rats
Experiment: in vitro mitochondrial swelling assay (light scattering at 540 nm)
Assay type: biochemical, rat
Details: for swelling response of non-peroxide stressed (control) mitochondria: normal, unstressed mitochondria, test article 100 μM, time course over 17 minutes, FIG. 1
Description: To evaluate the effects of sulfite salts on carboxylic acid NSAID-induced mitochondrial swelling, the following assay was used. […] An initial low speed centrifugation (600×g for 10 minutes) was conducted to remove nuclei and cell debris. The pellet was discarded and the supernatant was centrifuged at 7,740×g for 10 minutes to obtain a crude mitochondrial pellet. […] The suspension was centrifuged at 7,740×g for 10 minutes. The mitochondrial pellet was suspended in 30 mL of ice-cold wash buffer and centrifuged at 10,100×g for 10 minutes. […] The mitochondrial suspension was placed on ice for immediate assay. An aliquot of the mitochondrial preparation was added to a 5.0 mL cuvette (1.0 cm path length) that contained 2.95 mL of iso-osmotic HEPES buffer, supplemented with sodium succinate and rotenone. An appropriate aliquote of the mitochondrial suspension was added to the cuvette and swelling was monitored by light scattering at 540 nm for a period of 17 minutes. When drug effects were examined, mitochondria were initially exposed for a period of one minute to the test article before the addition of either buffer, t-BOOH (150 μM) or sodium sulfite (300 μM).

SMILES | swelling response of non-peroxide stressed (control) mitochondria | swelling response of t-BOOH-stressed mitochondria (t-BOOH 150 μM, diclofenac 30, 100 or 300 μM, FIG. 2) | effect of sulfite salt on NSAID-induced swelling of peroxide-stressed mitochondria (t-BOOH 150 μM, sodium sulfite 300 μM with 60 μM amfenac or 60 μM bromfenac, FIG. 3)
CC(C)Cc1ccc(C(C)C(=O)O)cc1 (stereo not drawn) [ibuprofen] | do not affect swelling |  | 
O=S([O-])[O-].[Na+].[Na+] [sodium sulfite] |  |  | mitochondrial swelling is prevented

Second part, led by results:

swelling response of non-peroxide stressed (control) mitochondria | swelling response of t-BOOH-stressed mitochondria (t-BOOH 150 μM, diclofenac 30, 100 or 300 μM, FIG. 2) | SMILES | effect of sulfite salt on NSAID-induced swelling of peroxide-stressed mitochondria (t-BOOH 150 μM, sodium sulfite 300 μM with 60 μM amfenac or 60 μM bromfenac, FIG. 3)
do not affect swelling |  | Nc1c(CC(=O)O)cccc1C(=O)c1ccccc1 [amfenac] | 
do not affect swelling |  | Nc1c(CC(=O)O)cccc1C(=O)c1ccc(Br)cc1 [bromfenac] | 
do not affect swelling | promote the swelling of mitochondria | O=C(O)Cc1ccccc1Nc1c(Cl)cccc1Cl [diclofenac] | 
